Consider 2 molecules from patent US20070037833A1, “Compositions and methods for inhibiting neurodegeneration” (priority 2005, published 2007).

Data set [1] relates to motor neurons. Nature of the data set: Cholesterol content of pure motor neuron cultures (Amplex Red Cholesterol Assay). Conditions: after 30 minutes of treatment. The format is cell-based, rat. On the procedure:
Two hundred thousand motor neurons were plated in wells of a 96 well dish and after 24 hrs. treated with βMCD or vehicle. Thirty minutes later cholesterol content was determined using the Amplex® Red Cholesterol Assay kit (Molecular Probes) according to the manufacturers instructions. All determinations were made in quintuplicate and normalized to protein content (determined using Protein Assay kit (Bio-Rad)).
Finally to begin to determine the biological relevance of the lipid raft signaling complex, we asked if their disruption with cholesterol depleting agents would affect the capacity of BDNF to confer excitotoxic sensitivity upon motor neurons. Pure motor neurons were grown in the presence of CT-1 but in the absence of BDNF for 24 hours at which point the cholesterol depleting agent, β-methylcyclodextin (βMCD) or vehicle was added to the cultures. Thirty minutes later, BDNF or vehicle was added to the culture and 3 hours later the excitoticity assay was performed (FIG. 6b). We determined the amount of cholesterol in our pure motor neuron cultures after 30 minutes of βMCD treatment and found an ˜25% reduction in comparison with vehicle treatment (βMCD v. vehicle; 404±31 μg/μg protein versus 550±16 μg/μg protein, n=5 samples, t-test, p<0.001). […]

Data set [2] concerns pure motor neurons grown in CT-1. The experiment in a line: BDNF-conferred excitotoxic sensitivity of pure motor neurons after cholesterol depletion. The format is cell-based. Conditions: for excitotoxic cell death: acute BMCD or vehicle followed by BDNF or vehicle, then kainate. On the procedure:
Finally to begin to determine the biological relevance of the lipid raft signaling complex, we asked if their disruption with cholesterol depleting agents would affect the capacity of BDNF to confer excitotoxic sensitivity upon motor neurons. Pure motor neurons were grown in the presence of CT-1 but in the absence of BDNF for 24 hours at which point the cholesterol depleting agent, β-methylcyclodextin (βMCD) or vehicle was added to the cultures. Thirty minutes later, BDNF or vehicle was added to the culture and 3 hours later the excitoticity assay was performed (FIG. 6b). We determined the amount of cholesterol in our pure motor neuron cultures after 30 minutes of βMCD treatment and found an ˜25% reduction in comparison with vehicle treatment (βMCD v. vehicle; 404±31 μg/μg protein versus 550±16 μg/μg protein, n=5 samples, t-test, p<0.001). In terms of cell death, a statistically significant difference between experimental groups was identified by ANOVA (F(5,42)=32.797; P<0.001) and a post hoc analysis (Scheffé with level of significance set at P<0.05) indicated excitotoxic death only occurred in the (+)BDNF/(−)βMCD treatment group (# of motor neurons exposed to vehicle or kainate; 57±7 versus 40±4).

Data set [3] relates to ALS patients. To be noted: intrathecal 25 μg/day or 150 μg/day versus vehicle, 18 months; cited from earlier work.

Turning to β-methylcyclodextin [βMCD], in data set [1], the “reduction of cholesterol in comparison with vehicle” value is roughly 25%. The “# of motor neurons” value was 51±5 in data set [2] ((+)BDNF/(+)βMCD group, exposed to kainate); 58±4 in data set [2] ((+)BDNF/(+)βMCD group, exposed to vehicle); 60±5 in data set [2] ((−)BDNF/(+)βMCD group, exposed to kainate); 60±3 in data set [2] ((−)BDNF/(+)βMCD group, exposed to vehicle). For the same molecule, the “toxicity to motor neurons” value in data set [2] (BMCD alone) is listed as “non-toxic”. Further, the excitotoxic cell death result in data set [2] is “did not occur”.

B1: BDNF: brain-derived neurotrophic factor, activates the receptor tyrosine kinase TrkB (protein, UniProt P23560 19-247, looked up)
Neurotrophic factor BDNF …: APMKEANIRGQGGLAYPGVRTHGTLESVNGPKAGSRGLTSLADTFEHVIEELLDEDQKVRPNEENNKDADLYTSRVMLSSQVPLEPPLLFLLEEYKNYLDAANMSMRVRRHSDPARRGELSVCDSISEWVTAADKKTAVDMSGGTVTVLEKVPVSKGQLKQYFYETKCNPMGYTKEGCRGIDKRHWNSQCRTTQSYVRALTMDSKKRIGWRFIRIDTSCVCTLTIKRGR
For the molecule B1, the “survival rate (survival free of ventilatory support)” value in data set [3] was “lower than in the placebo group”. Besides, the “# of motor neurons” value in data set [2] ((+)BDNF/(−)βMCD group, exposed to kainate) stood at 40±4; in data set [2] ((+)BDNF/(−)βMCD group, exposed to vehicle), 57±7. The excitotoxic cell death entry in data set [2] was “Excitotoxic cell death occurred”.
